Reference: patent US20150305328A1, “METHODS OF SAFENING SUGAR CANE PLANTS WITH N-ACYLSULFAMOYLPHENYLUREAS” (SYNGENTA PARTICIPATIONS AG, priority 2012, published 2015)

Test system: sugar cane varieties SP803280 and RB835486
Assay: Glasshouse safening test: visual phytotoxicity of pre-emergent herbicides on sugar cane grown from safener-soaked single-node stem sections
Assay type: in vivo
Method: In the following examples, two commercial and contemporary Brazilian sugar cane varieties were used in the experiential testing, SP803280 and RB835486. The sugar cane propagation material was prepared using single-node stem sections approximately 8 cm in length. The stem sections were treated by soaking for about 10 seconds in a solution containing Formula A=1-[4-(N-2-methoxybenzoylsulfamoyl)phenyl]-3-methylurea (15 ml of formulated product in 500 ml water; the formulated product contained 100 grams of Formula A per liter of formulated product). Four stem segments (replicates) were planted in and covered with 1 cm of the regular live loam soil used in glasshouse screening using standard planting troughs, putting each variety in a separate trough. Seeds of one of two appropriate weeds, Euphorbia heterophylla or Brachiaria decumbens were also planted in each trough in a clump to give a measure of relative weeds control alongside crop phytotoxicity. Plants were assessed for percentage visual phytotoxicity at 7 day intervals after application (DAA) up to 35 DAA. Three herbicides, all having different modes-of-action were applied the day after planting as pre-emergent herbicide. The herbicides applied were: clomazone (Gamit®) having a DOXP mode-of-action (inhibition of the 1-desoxy-D-xylulose 5-phosphate), sufentrazone (Boral®) having a PPO mode-of-action (inhibition of protoporphyrinogen oxidase), and bicyclopyrone having an HPPD mode-of-action (inhibition of the enzyme 4-hydoxyphenylpyruvate dioxygenase). Application of each herbicide was applied at 600, 1200, 1600, and 2000 grams per hectare equivalents. Results: Shown in FIGS. 1-12 (DAA—Herbicide—Sugar Cane Variety)

SMILES	phytotoxicity level of sulfentrazone without Formula A safening (sugar cane, in vivo) [%]	safening of sulfentrazone (both varieties of sugar cane, stem sections soaked in Formula A)	phytotoxicity level with sulfentrazone after Formula A treatment (percentage visual phytotoxicity, reduced from 80%, in certain instances)	safening of bicyclopyrone (stem sections soaked in Formula A, bicyclopyrone applied pre-emergent)	safening of clomazone (stem sections soaked in Formula A, clomazone applied pre-emergent)	safening effect as sugar cane propagation material applied safener (with all three herbicides (clomazone, sulfentrazone, bicyclopyrone), applied pre-emergent at 600-2000 g/ha, FIGS. 1-12, 28 and 35 DAA)
Cc1nn(-c2cc(NS(C)(=O)=O)c(Cl)cc2Cl)c(=O)n1C(F)F [sulfentrazone, reference compound]	80					
CNC(=O)Nc1ccc(S(=O)(=O)NC(=O)c2ccccc2OC)cc1 [Formula A, 1-[4-(N-2-methoxybenzoylsulfamoyl)phenyl]-3-methylurea]		very effectively	zero	strong safening	strong safening	clear safening effect
